The record followed here is article PMC10544015 (Journal of Medicinal Chemistry, 2023).

The structures appear in SMILES notation. Bridge positions count the residues as written; N and C are the ends. Square brackets hold non-standard residues; d marks the D form. Triazole bridges read from a SMILES are 1,4-linked. Peptide text beside a SMILES is read from it. Lys(N3) = [N-]=[N+]=NCCCC[C@H](N)C(=O)O; Pra = C#CC[C@H](N)C(=O)O; Ahx = NCCCCCC(=O)O

A short description of one series: circular dichroism. Conditions: PBS (10 mM phosphate, 137 mM NaCl, 2.7 mM KCl); pH 7.4; rt °C; 100 uM. On the technique in general: Circular dichroism is widely used to follow secondary structure.
Series [1] in a line: In vitro proteolytic stability in human plasma. Type of series: in vitro ADME. Conditions: after 24 h, human plasma, 37 °C. The method, then:
The proteolytic stability of the peptides was determined through in vitro stability assays in human plasma, as previously reported.[31],[89] Briefly, a stock solution of the peptide was prepared at a concentration of 1–2 mm in Milli-Q water and was used for further dilutions. Prior to the actual stability testing, the selectivity of the assay and stability of the working solutions were evaluated in parallel with an assessment of the linearity, accuracy, and precision of the method using three separately prepared calibration curves. The samples were analyzed by RP-HPLC on an Agilent 1200 series gradient HPLC system in combination with an EC HPLC column EC 150/2 NUCLEODUR (C18 HTec, 3 μm length: 150 mm, ID: 2 mm. Macherey-Nagel). The half-lives of the peptides were calculated by interpolating the data based on the obtained calibration curve. Afterward, the log concentrations as a function of time were transferred to a semi-log chart. Metabolites were identified by reanalyzing the samples using LC-MS on the same system previously described.[31]

A further series concerns the target T1, Panx1 channels (Homo sapiens, UniProt Q96RD7).
T1 construct: host or cells: EA.hy926 human endothelial cells
As to the kind of experiment: HOS-induced ATP release assay in EA.hy926 endothelial cells. In kind it is cell-based. The method, then: Similar to B16-BL6 cells, a 2–3-fold enhancement of ATP release from EA.hy926 cells was observed upon HOS stimulation (Figure 7E). However, the absolute levels of ATP release were lower in these endothelial cells (around 300 vs 500–600 nM in B16-BL6 cells). As expected, Pbn reduced HOS-induced ATP release from EA.hy926 cells, albeit by a lower fraction than the one observed in B16-BL6 cells (Figure 7E vs7A). The reason for this different efficacy of Pbn is unknown but may be due to its nonspecific action on other ATP release channels or transporters,[68] of which the expression naturally varies among different cell types. […] The water-soluble double-stapled ^10Panx1 peptidomimetic SBL-PX1-206 reduced HOS-induced ATP release from EA.hy926 cells by about 25% at 12.5 μM. […] Stapled and double-stapled ^10Panx1 analogues were also not cytotoxic when tested at 100 and 12.5 μM in EA.hy926 cells (Supporting Information, Figure S8).
Triplicates were performed for each independent experiment.

The nature of series [2]: Water solubility (observation). Type of series: physicochemical.

T1 sequence (Q96RD7 whole entry): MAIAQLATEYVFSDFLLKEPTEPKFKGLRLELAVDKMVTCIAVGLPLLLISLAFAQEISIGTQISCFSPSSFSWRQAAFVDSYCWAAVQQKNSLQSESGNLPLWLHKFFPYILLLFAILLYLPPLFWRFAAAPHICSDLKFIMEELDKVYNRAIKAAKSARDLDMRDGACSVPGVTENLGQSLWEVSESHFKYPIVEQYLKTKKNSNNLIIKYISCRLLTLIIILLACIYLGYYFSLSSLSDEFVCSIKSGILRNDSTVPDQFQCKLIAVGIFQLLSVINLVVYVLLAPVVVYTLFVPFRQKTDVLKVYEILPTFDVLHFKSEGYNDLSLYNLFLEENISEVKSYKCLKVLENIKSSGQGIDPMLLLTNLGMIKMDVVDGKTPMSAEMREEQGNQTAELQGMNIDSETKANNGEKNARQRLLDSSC

A word on the inhibition: it is the percentage by which the read-out fell short of the control. `CC(C)[C@@H]1NC(=O)[C@H](Cc2ccccc2)NC(=O)[C@@H](NC(=O)[C@@H]2CCCCn3cc(nn3)C[C@H](NC(=O)CCCCCNC(=O)[C@@H](N)CCCCN)C(=O)N[C@@H](Cc3c[nH]c4ccccc34)C(=O)N[C@@H](CCCNC(=N)N)C(=O)N[C@@H](CCC(N)=O)C(=O)N2)Cc2cn(nn2)CCCC[C@@H](C(=O)N[C@@H](Cc2ccc(O)cc2)C(N)=O)NC(=O)[C@H](CC(=O)O)NC1=O` [SBL-PX1-206] (H-K[Ahx][Pra]WRQ[Lys(N3)][Pra]FVD[Lys(N3)]Y-NH2; triazole 3-7, 8-12 (inferred)): the helicity in the series “circular dichroism” stood at 44%. In series [1], the “only identified metabolite (lysine of solubilizing tail cleaved) present in solution” value was “around 80%”. On Panx1 channels (12.5 µM), the “reduction of HOS-induced ATP release from EA.hy926 cells” value is given as “about 25%”. At Panx1 channels (EA.hy 926, read-out: % ATP release inhibition at 100µM (in EA.hy926 cells)), the inhibition at 100 µM was determined as 15%. The water solubility result in series [2] was “water-soluble”.
